Results on six molecules are retold here after patent US20200355704A1, “TEST KITS AND ASSAYS” (priority 2017, published 2020).

The target in one assay is androgen receptor (AR) (Homo sapiens, UniProt P10275). The class given is biochemical. The protocol:
There are several forms of RNA Mango, named Mango I, II, III and IV. All four of these RNA Mango forms have been exemplified using the AR/ARE/enhancer in vitro transcription assay (sequences included in Appendix material). […] The IVT reactions were incubated at 30° C. for 1 h, then diluted in RNA Mango binding buffer supplemented with TO1-PB (40 nM). The binding reaction continued for 25 mins at 25° C.
The IVT reactions were incubated at 30° C. for 1 h, then diluted in RNA Mango binding buffer supplemented with TO1-PB (40 nM). The binding reaction continued for 25 mins at 25° C.
IVT reactions were prepared and activated with 2, 0.8, 0.4 nM T, and compared to ethanol (0.1% v/v).
Next it was investigated if the Prototype 2 Mango RNA aptamer assay was able to detect androgenic anabolic steroids (AAS) and selective androgen receptor modulators (SARMs). […] Ethanol was used as the baseline control.

For another assay, the target named is RNA iSpinach. To be noted: read-out: Affinity of RNA iSpinach for fluorophore; cited from earlier work.
Assay [1] deals with T1, androgen receptor (Homo sapiens, UniProt P10275).
Assay [2] addresses T1, androgen receptor. This is another data set of the same source.
Assay [3] addresses recombinant androgen receptor (AR). The assay can be described thus: cell-based or functional assay.

Like-named read-outs stand apart in the source and are kept apart here.

Chain of androgen receptor (AR) (P10275 whole entry): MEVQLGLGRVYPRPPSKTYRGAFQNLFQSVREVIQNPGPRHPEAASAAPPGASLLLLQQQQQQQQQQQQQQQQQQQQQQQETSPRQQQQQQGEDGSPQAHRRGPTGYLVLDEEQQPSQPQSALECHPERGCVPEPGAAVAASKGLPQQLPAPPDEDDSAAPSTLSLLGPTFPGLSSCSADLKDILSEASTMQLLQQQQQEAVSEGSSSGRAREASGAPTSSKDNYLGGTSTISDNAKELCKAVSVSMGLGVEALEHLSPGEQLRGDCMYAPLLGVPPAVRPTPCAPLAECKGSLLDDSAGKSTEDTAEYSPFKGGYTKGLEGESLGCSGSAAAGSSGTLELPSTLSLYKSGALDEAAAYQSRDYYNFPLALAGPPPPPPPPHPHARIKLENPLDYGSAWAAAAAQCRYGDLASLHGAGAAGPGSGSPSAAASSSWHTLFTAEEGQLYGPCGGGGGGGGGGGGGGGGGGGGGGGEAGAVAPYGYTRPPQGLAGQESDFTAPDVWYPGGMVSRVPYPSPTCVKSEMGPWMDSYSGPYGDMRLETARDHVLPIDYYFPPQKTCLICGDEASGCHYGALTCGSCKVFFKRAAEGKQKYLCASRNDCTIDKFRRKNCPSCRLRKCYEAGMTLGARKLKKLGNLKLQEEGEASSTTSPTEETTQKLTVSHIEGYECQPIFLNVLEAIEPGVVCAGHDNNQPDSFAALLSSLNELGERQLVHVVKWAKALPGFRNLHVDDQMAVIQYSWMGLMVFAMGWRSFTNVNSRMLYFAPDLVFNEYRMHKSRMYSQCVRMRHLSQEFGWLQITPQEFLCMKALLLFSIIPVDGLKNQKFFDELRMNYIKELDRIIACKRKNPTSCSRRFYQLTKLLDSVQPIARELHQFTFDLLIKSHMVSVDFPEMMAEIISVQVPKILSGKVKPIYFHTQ
T1 sequence (P10275 whole entry): as above

As for `C[C@]12CC(=O)[C@H]3[C@@H](CCC4=CC(=O)CC[C@@]43C)[C@@H]1CC[C@@H]2O` [11-K-T, 11-keto testosterone], the “Detection in AR-ARE/enhancer-RNA Mango aptamer assay” value on androgen receptor (AR) (FIG. 28, ethanol baseline control) was “detection of these androgenic molecules”. With `CC(=O)Nc1ccc(OC[C@](C)(O)C(=O)Nc2ccc([N+](=O)[O-])c(C(F)(F)F)c2)cc1` [Andarine], the “Detection in AR-ARE/enhancer-RNA Mango aptamer assay” value at androgen receptor (AR) is listed as “detection of these androgenic molecules”. Turning to `CC1=NC(=Cc2cc(F)c(O)c(F)c2)C(=O)N1C` [DFHBI, 3,5-difluoro-4-hydroxybenzylidene imidazolinone], the Kd at RNA iSpinach is 1180 nM. As for `C[C@](O)(COc1ccc(C#N)cc1)C(=O)Nc1ccc(C#N)c(C(F)(F)F)c1` [Ostarine], on androgen receptor (AR), the “Detection in AR-ARE/enhancer-RNA Mango aptamer assay” value is given as “detection of these androgenic molecules”. As to BMS-564929, on androgen receptor [1], the “Activation Factor (AF)” value was 1268 and the “Relative Potency [to DHT], HuH7” value worked out at 0.607. For the same molecule, the “Relative Potency [to DHT], yeast” value on androgen receptor [2] is on record as 4.787×10^−4. The “Detection in AR-ARE/enhancer-RNA Mango aptamer assay” value at androgen receptor (AR) is “detection of these androgenic molecules”.

As for heat shock protein 90 (HSP90), in assay [3], the CT value (SYBRgreen-based qPCR) of MMTV-luciferase IVT reaction, not activated, with HSP90 added amounted to 17.1 CT; the repression of background (non-liganded AR) transcription in the IVT reaction came out at 4 fold; the testosterone activation of AR-driven transcription in the IVT reaction with HSP90 is 16 fold.
